In ChEMBL document CHEMBL5375989, “Pioneering 4,11-Dioxo-4,11-dihydro-1H-anthra[2,3-d]imidazol-3-ium Compounds as Promising Survivin Inhibitors by Targeting ILF3/NF110 for Cancer Therapy” (J Med Chem, 2023):

Key:
PANC-1 = assay: Antiproliferative activity against human PANC-1 cells assessed as inhibition of cell growth measured after 48 hrs by MTT assay; type: functional, cell-based; settings: panc-1
[1] = Drug metabolism in BALB/C nude mouse kidney xenografted with human A549 cells at 2 mg/kg measured after 2 to 6 hrs by UPLC-3Q analysis; type: ADME, organism-based; settings: in vivo, time 2-6 hrs
BXPC-3 = assay: Antiproliferative activity against human BXPC-3 cells assessed as inhibition of cell growth measured after 48 hrs by MTT assay; type: functional, cell-based; settings: bxpc-3
[2] = Toxicity in BALB/c nude mouse assessed as dermatitis at 2 mg/kg, sc administered every 2 days for 14 days; type: organism-based; settings: in vivo, 336 h, time 14 day
HepG2 = assay: Antiproliferative activity against human HepG2 cells assessed as inhibition of cell growth measured after 48 hrs by MTT assay; type: functional, cell-based; settings: hepg2
[3] = Drug distribution in BALB/C nude mouse heart xenografted with human A549 cells at 2 mg/kg measured after 2 to 6 hrs by UPLC-3Q analysis; type: ADME, organism-based; settings: in vivo, time 2-6 hrs
A549 [4] = assay: Induction of apoptosis in human A549 cells assessed as early apoptotic cells at 0.25 uM measured after 48 hrs by annexin V and PI staining based flow cytometry analysis (reference value: 0.71%); type: functional
A549 [5] = assay: Induction of apoptosis in human A549 cells assessed as necrotic cells at 0.25 uM measured after 48 hrs by annexin V and PI staining based flow cytometry analysis (reference value: 1.47%); type: functional
A549 [6] = assay: Induction of apoptosis in human A549 cells assessed as viable cells at 0.1 uM measured after 48 hrs by annexin V and PI staining based flow cytometry analysis (reference value: 93.3%); type: functional; settings: Homo sapiens, A549, 48 h, read-out: Activity
A549 [7] = assay: Induction of apoptosis in human A549 cells assessed as late apoptotic cells at 0.1 uM measured after 48 hrs by annexin V and PI staining based flow cytometry analysis (reference value: 4.70%); type: functional
NCI-H1299 = assay: Antiproliferative activity against human NCI-H1299 cells assessed as inhibition of cell growth measured after 48 hrs by MTT assay; type: functional, cell-based; settings: nci-h1299
[8] = Toxicity in BALB/c mouse assessed as morphological changes in spleen at 2 to 4 mg/kg by H and E staining based analysis; type: organism-based; settings: in vivo, dose 2-4 mg/kg
A549 [9] = assay: Induction of apoptosis in human A549 cells assessed as viable cells at 0.25 uM measured after 48 hrs by annexin V and PI staining based flow cytometry analysis (reference value: 93.3%); type: functional; settings: Homo sapiens, A549, 48 h, read-out: Activity
A549 [10] = assay: Induction of apoptosis in human A549 cells assessed as late apoptotic cells at 0.04 uM measured after 48 hrs by annexin V and PI staining based flow cytometry analysis (reference value: 4.70%); type: functional
A549 [11] = assay: Antiproliferative activity against survivin silenced human A549 cells assessed as inhibition of cell growth measured after 48 hrs by MTT assay; type: functional, cell-based; settings: A549, 48 h
[12] = Selectivity index, ratio of IC50 for mouse L929 cells to IC50 for human A549 cells; type: toxicity; settings: L929 cells and A549 cells, read-out: Ratio IC50
A549 [13] = assay: Antitumor activity against human A549 cells xenografted in BALB/c nude mouse assessed as inhibition of tumor growth at 4 mg/kg, sc administered every 2 days for 14 days relative to control; type: functional; design: scale not given: the % may be the effect or the level left; settings: time 14 day
A549 [14] = assay: Induction of cell cycle arrest in human A549 cells assessed as accumulation of cells at G0/G1 phase at 0.1 uM incubated for 48 hrs by PI staining based flow cytometry analysis (reference value: 63.26%); type: functional
TE-1 = assay: cells; settings: Homo sapiens, TE-1, 48 h
Description: Antiproliferative activity against human TE-1 cells assessed as inhibition of cell growth measured after 48 hrs by MTT assay

[15] = Drug uptake in Sprague-Dawley rat blood at 2 mg/kg measured after 24 hrs by UPLC-3Q analysis; type: ADME, organism-based; settings: in vivo
A549 [16] = assay: Antiproliferative activity against human A549 cells assessed as inhibition of cell growth measured after 48 hrs in presence of scramble siRNA by MTT assay; type: functional, cell-based; settings: A549, 48 h
NCI-H460 = assay: Antiproliferative activity against human NCI-H460 cells assessed as inhibition of cell growth measured after 48 hrs by MTT assay; type: functional, cell-based; settings: nci-h460
[17] = Toxicity in BALB/c nude mouse assessed as death at 4 mg/kg, sc administered every 2 days for 14 days; type: organism-based; settings: in vivo, 336 h, time 14 day
[18] = Toxicity in BALB/c mouse assessed as morphological changes in lung at 2 to 4 mg/kg by H and E staining based analysis; type: organism-based; settings: in vivo, dose 2-4 mg/kg
HUVEC = assay: Antiproliferative activity against human HUVEC cells assessed as inhibition of cell growth measured after 48 hrs by MTT assay; type: toxicity, cell-based; settings: huvec
[19] = Toxicity in BALB/c mouse assessed as morphological changes in kidney at 2 to 4 mg/kg by H and E staining based analysis; type: organism-based; settings: in vivo, dose 2-4 mg/kg
[20] = Toxicity in BALB/c mouse assessed as morphological changes in heart at 2 to 4 mg/kg by H and E staining based analysis; type: organism-based; settings: in vivo, dose 2-4 mg/kg
143B = assay: Antiproliferative activity against human 143B cells assessed as inhibition of cell growth measured after 48 hrs by MTT assay; type: functional, cell-based; settings: 143b
A549 [21] = assay: Induction of apoptosis in human A549 cells assessed as early apoptotic cells at 0.1 uM measured after 48 hrs by annexin V and PI staining based flow cytometry analysis (reference value: 0.71%); type: functional
A549 [22] = assay: Induction of apoptosis in human A549 cells assessed as late apoptotic cells at 0.25 uM measured after 48 hrs by annexin V and PI staining based flow cytometry analysis (reference value: 4.70%); type: functional
[23] = Toxicity in BALB/c nude mouse assessed as body weight loss at 4 mg/kg, sc administered every 2 days for 14 days; type: organism-based; settings: in vivo, 336 h, time 14 day
A549 [24] = assay: Induction of apoptosis in human A549 cells assessed as viable cells at 0.04 uM measured after 48 hrs by annexin V and PI staining based flow cytometry analysis (reference value: 93.3%); type: functional; settings: Homo sapiens, A549, 48 h, read-out: Activity
[25] = Toxicity in BALB/c mouse assessed as morphological changes in liver at 2 to 4 mg/kg by H and E staining based analysis; type: organism-based; settings: in vivo, dose 2-4 mg/kg
[26] = Drug distribution in BALB/C nude mouse tumor xenografted with human A549 cells at 2 mg/kg measured after 2 to 6 hrs by UPLC-3Q analysis; type: ADME, organism-based, Neoplasm; settings: in vivo, time 2-6 hrs
[27] = Toxicity in BALB/c nude mouse assessed as dermatitis at 4 mg/kg, sc administered every 2 days for 14 days; type: organism-based; settings: in vivo, 336 h, time 14 day
NIH3T3 = assay: Antiproliferative activity against mouse NIH3T3 cells assessed as inhibition of cell growth measured after 48 hrs by MTT assay; type: toxicity, cell-based; settings: nih3t3
A549 [28] = assay: Inhibition of colony formation in human A549 cells assessed as suppression of colony formation at 5 nM replaced with fresh medium for every 72 hrs and measured for 15 days by crystal violet staining based assay relative to control; type: functional; settings: A549, 360 h, time 15 day

For `Cn1c[n+](C)c2c1C(=O)c1cc3ccccc3cc1C2=O.[I-]`, the IC50 (PANC-1) was 80 nM, the Drug metabolism [1] was “Metabolite_Detected” and the IC50 (BXPC-3) was 70 nM. The Activity [2] was “Non-Toxic”, the IC50 (HepG2) was 250 nM and the Drug uptake [3] was “Not Active”. It also gave an Activity (A549 [4]) of 2.37%, an Activity (A549 [5]) of 4.32% and a viability at 0.1 µM (A549 [6]) of 8.7%. For the same compound, the Activity (A549 [7]) was 81.9%, the IC50 (NCI-H1299) was 510 nM and the Activity [8] was “Non-Toxic”. It also gave a viability at 0.25 µM (A549 [9]) of 3.28%, an Activity (A549 [10]) of 61.4% and an IC50 (A549 [11]) of 980 nM. The selectivity ratio [12] was 2390, the Activity (A549 [13]) was 83.6% and the Activity (A549 [14]) was 85.37%. The IC50 (TE-1) was 50 nM, the Drug uptake [15] was “Active” and the IC50 (A549 [16]) was 9 nM. The IC50 (NCI-H460) was 140 nM, the Activity [17] was “Non-Toxic” and the Activity [18] was “Non-Toxic”. For the same compound, the IC50 (HUVEC) was 6660 nM, the Activity [19] was “Non-Toxic” and the Activity [20] was “Non-Toxic”. The IC50 (143B) was 590 nM, the Activity (A549 [21]) was 2.55% and the Activity (A549 [22]) was 90%. The Activity [23] was “Non-Toxic”, the viability at 0.04 µM (A549 [24]) was 27.8% and the Activity [25] was “Non-Toxic”. The Drug uptake [26] was “Active”, the Activity [27] was “Non-Toxic” and the IC50 (NIH3T3) was 14000 nM. For the same compound, the inhibition at 0.005 µM (A549 [28]) was 100%.
